For two molecules, anti-FXa activity results are on record in patent US11850334B2, “Immobilised biological entities” (CARMEDA AB, priority 2018, dated 2023).

This assay deals with FXa. The assay can be described thus: Anti-FXa activity of heparin fragments in solution, compared with International Standard (Evaluation Method C). Particulars: not immobilized, calculated towards Low Molecular Heparin 2nd International Standard. In kind it is biochemical. As for the experimental part:
Evaluation Method C: Anti-FXa Activity Determination of Heparin Fragments in Solution, Compared with International Standard
The anticoagulant activity of the heparin fragments are determined in an anti-FXa assay. This method measures anti-FXa activity of heparin essentially according to USP<208> Anti-FXa and Anti-FIIa assays for unfractionated and low molecular weight heparins. The method is based on heparin's ability to accelerate antithrombin inhibition of FXa in vitro, where the residual FXa activity is detected using a chromogenic FXa substrate (CS 11(65)). The results expressed as IU/mg (international unit/mg) are calculated using the parallel-line model, towards the Low Molecular Heparin 2nd International Standard.
Anti-FXa activity was determined by Evaluation Method Con example 1.2 (alpha), 1.1 (beta), 2.1, 2.2 and 2.3 (see Table 3). All heparin fragments tested were in solution and not immobilized to a surface.

Regarding “5-Aminopentyl 2-deoxy-2-sulfamido-6-O-sulfo-α-D-glucopyranosyl-(1→4)-β-D-glucopyranosyluronic acid-(1→4)-2-deoxy-2-sulfamido-3,6-di-O-sulfo-α-D-glucopyranosyl-(1→4)-2-O-sulfo-α-L-idopyranosyluronic acid-(1→4)-2-deoxy-2-sulfamido-6-O-sulfo-β-D-glucopyranoside [Example 1.1]”, the anti-FXa activity is on record as 385 IU/mg. On to `NCCCCCO[C@H]1O[C@H](COS(=O)(=O)O)[C@@H](O[C@@H]2O[C@@H](C(=O)O)[C@@H](O[C@H]3O[C@H](COS(=O)(=O)O)[C@@H](O[C@@H]4O[C@H](C(=O)O)[C@@H](O[C@H]5O[C@H](COS(=O)(=O)O)[C@@H](O)[C@H](O)[C@H]5NS(=O)(=O)O)[C@H](O)[C@H]4O)[C@H](OS(=O)(=O)O)[C@H]3NS(=O)(=O)O)[C@H](O)[C@H]2OS(=O)(=O)O)[C@H](O)[C@H]1NS(=O)(=O)O` [Example 1.2, 5-Aminopentyl 2-deoxy-2-sulfamido-6-O-sulfo-α-D-glucopyranosyl-(1→4)-β-D-glucopyranosyluronic acid-(1→4)-2-deoxy-2-sulfamido-3,6-di-O-sulfo-α-D-glucopyranosyl-(1→4)-2-O-sulfo-α-L-idopyranosyluronic acid-(1→4)-2-deoxy-2-sulfamido-6-O-sulfo-α-D-glucopyranoside], for which the anti-FXa activity is recorded as 330 IU/mg.
